Measured values from patent US5484934A, “Isothiazole derivatives, a process for production thereof and uses thereof” (Nihon Nohyaku Co., Ltd., priority 1992, dated 1996).

Columns and labels:
Coriolus versicolor = experiment: Inhibition of hypha growth on malt extract agar, Coriolus versicolor; type: cell-based; conditions: Trametes versicolor, 28±2° C., 2 to 10 days, read-out: Controlling effect (growth inhibition rate) COV
[1] = tested on: Pseudoperonospora cubensis; experiment: Controlling effect on cucumber Downy mildew; type: in vivo; conditions: 168 h, 200 ppm spray, inoculation after 24 hours, read-out: Controlling effect Pc (cucumber downy mildew)
Phytophthora infestants = experiment: whole plant or invertebrate; type: in vivo; conditions: 168 h; read-out: Controlling effect Pi (tomato late blight)
Pyricularia oryzae = experiment: whole plant or invertebrate; type: in vivo; conditions: 168 h, read-out: Controlling effect Ps (rice blast)
Botrytis cinerea = experiment: Controlling effect (curing effect) on cucumber gray mold; type: in vivo; conditions: 72 h, immersion of inoculated cotyledons, 15° C., read-out: Controlling effect Bc (cucumber gray mold)
Protocol: Controlling effect (curing effect) on cucumber gray mold The cotyledons of potted cucumber plants at the 1 leaf stage were cut off and each of them was inoculated with a mycelial tuft of gray mold fungus (Botrytis cinerea) cultured on PSA medium. After having been placed in a moist chamber at 15° C. for 24 hours, the cotyledons were immersed in a 200 ppm liquid chemical containing each compound of the present invention as active ingredient. […]

Alternaria mali = experiment: Inhibition of hypha growth on malt extract agar, Alternaria mali; conditions: read-out: Controlling effect (growth inhibition rate) ALM
Protocol: (§1) Each preparation to be tested was added to malt extract agar medium to adjust the concentration to 50 ppm, and the resulting mixture was dispensed into Petri dishes. As an inoculum, a prepared mycerial tuft of each test fungus was punched out together with agar by means of a 4-mm-diameter cork borer and inoculated on medium. The incubation temperature was adjusted to 28±2° .C (or 18±2° C. in the case of Selupula lacrymas).
(§2) The diameter of mycerial tuft was measured 2 to 10 days after the inoculation, and the inhibition rate of hypha growth (the following equation) was measured.
(§3) The controlling effect was evaluated according to the following criterion.

Serpula lacrymans = experiment: Inhibition of hypha growth on malt extract agar, Serpula lacrymans; conditions: read-out: Controlling effect (growth inhibition rate) SEL
Protocol: as §1, §2

Aspergillus niger = experiment: Inhibition of hypha growth on malt extract agar, Aspergillus niger; conditions: read-out: Controlling effect (growth inhibition rate) ASN
Protocol: as §1, §2, §3

Trichoderma viride = experiment: Inhibition of hypha growth on malt extract agar, Trichoderma viride; conditions: read-out: Controlling effect (growth inhibition rate) TRV
Protocol: as §1, §2

Fusarium oxysporum = experiment: Inhibition of hypha growth on malt extract agar, Fusarium oxysporum; conditions: read-out: Controlling effect (growth inhibition rate) FUO
Protocol: as §1, §2, §3

Rhizopus nigricans = experiment: Inhibition of hypha growth on malt extract agar, Rhizopus nigricans; conditions: Rhizopus stolonifer, read-out: Controlling effect (growth inhibition rate) RHS
Protocol: as §1, §2

Tyromyces palustris = experiment: Inhibition of hypha growth on malt extract agar, Tyromyces palustris; conditions: read-out: Controlling effect (growth inhibition rate) TYP
Protocol: as §1, §2

Chaetomium globosum = experiment: Inhibition of hypha growth on malt extract agar, Chaetomium globosum; conditions: read-out: Controlling effect (growth inhibition rate) CHG
Protocol: as §1, §2, §3

[2] = tested on: Cladosporium cladosporioides; experiment: Inhibition of hypha growth on malt extract agar, Cladosporium cladosporioides; conditions: read-out: Controlling effect (growth inhibition rate) CLC
Protocol: as §1, §2

| SMILES | inhibition at 50 ppm (Coriolus versicolor) [%] | pest or weed control at 200 ppm [1] [%] | pest or weed control at 200 ppm (Phytophthora infestants) [%] | pest or weed control at 200 ppm (Pyricularia oryzae) [%] | pest or weed control at 200 ppm (Botrytis cinerea) [%] | inhibition at 50 ppm (Alternaria mali) [%] | inhibition at 50 ppm (Serpula lacrymans) [%] | inhibition at 50 ppm (Aspergillus niger) [%] | inhibition at 50 ppm (Trichoderma viride) [%] | inhibition at 50 ppm (Fusarium oxysporum) [%] | inhibition at 50 ppm (Rhizopus nigricans) [%] | inhibition at 50 ppm (Tyromyces palustris) [%] | inhibition at 50 ppm (Chaetomium globosum) [%] | inhibition at 50 ppm [2] [%] |
| --- | --- | --- | --- | --- | --- | --- | --- | --- | --- | --- | --- | --- | --- | --- |
| N#Cc1c(O)nsc1S(=O)(=O)c1ccccc1 [Compound 1, 3-hydroxy-4-cyano-5-phenylsulfonylisothiazole] | 85 to 99 | 60 to 79 | 60 to 79 | 80 to 94 | 0 to 59 | 55 to 84 | 85 to 99 | 55 to 84 | 85 to 99 | 55 to 84 | 85 to 99 | 55 to 84 | 85 to 99 | 55 to 84 |
| CCOC(=O)c1ccccc1S(=O)(=O)c1snc(O)c1C#N [Compound 5] | – | 60 to 79 | 80 to 94 | 60 to 79 | 0 to 59 | – | – | – | – | – | – | – | – | – |
| COc1nsc([S+](C)[O-])c1C#N (stereo not drawn) [Compound 15, 3-methoxy-4-cyano-5-methylsulfoxyisothiazole] | 100 | 95 to 100 | 95 to 100 | 95 to 100 | 60 to 79 | 100 | 100 | 100 | 100 | 100 | 100 | 100 | 100 | 100 |
| C#CCOc1nsc([S+](C)[O-])c1C#N (stereo not drawn) [Compound 16] | 85 to 99 | 95 to 100 | 95 to 100 | 80 to 94 | 60 to 79 | 100 | 100 | 100 | 100 | 85 to 99 | 100 | 100 | 100 | 100 |
| COc1nsc(S(C)(=O)=O)c1C#N [Compound 20, 3-methoxy-4-cyano-5-methylsulfonylisothiazole] | 100 | 95 to 100 | 95 to 100 | 95 to 100 | 60 to 79 | 100 | 100 | 100 | 100 | 100 | 100 | 100 | 100 | 100 |
| CCOc1nsc(S(C)(=O)=O)c1C#N [Compound 21] | – | 95 to 100 | 95 to 100 | 95 to 100 | 60 to 79 | – | – | – | – | – | – | – | – | – |
| C=CCOc1nsc(S(C)(=O)=O)c1C#N [Compound 22] | 100 | 80 to 94 | 95 to 100 | 95 to 100 | 0 to 59 | 85 to 99 | 100 | 85 to 99 | 85 to 99 | 85 to 99 | 85 to 99 | 100 | 55 to 84 | 100 |
| CCOc1nsc(S(=O)(=O)CC)c1C#N [Compound 23] | – | 95 to 100 | 95 to 100 | 95 to 100 | 60 to 79 | – | – | – | – | – | – | – | – | – |
| CS(=O)(=O)c1snc(OC(F)F)c1C#N [Compound 24, 3-difluoromethoxy-4-cyano-5-methylsulfonylisothiazole] | 100 | 95 to 100 | 95 to 100 | 95 to 100 | 0 to 59 | 100 | 100 | 100 | 100 | 85 to 99 | 85 to 99 | 100 | 55 to 84 | 100 |
| CCS(=O)(=O)c1snc(OC(F)F)c1C#N [Compound 25] | – | 95 to 100 | 95 to 100 | 80 to 94 | 60 to 79 | – | – | – | – | – | – | – | – | – |
| CC(C)S(=O)(=O)c1snc(OC(F)F)c1C#N [Compound 27] | – | 80 to 94 | 95 to 100 | 95 to 100 | 0 to 59 | – | – | – | – | – | – | – | – | – |
| COc1nsc(S(=O)(=O)C(C)C)c1C#N [Compound 35] | – | 95 to 100 | 95 to 100 | 95 to 100 | 0 to 59 | – | – | – | – | – | – | – | – | – |
| CCS(=O)(=O)c1snc(OC)c1C#N [Compound 37] | – | 95 to 100 | 95 to 100 | 95 to 100 | 0 to 59 | – | – | – | – | – | – | – | – | – |
| CCOc1nsc(S(=O)(=O)C(C)C)c1C#N [Compound 38] | – | 95 to 100 | 95 to 100 | 95 to 100 | 60 to 79 | – | – | – | – | – | – | – | – | – |
| CC(C)Oc1nsc(S(C)(=O)=O)c1C#N [Compound 50] | 100 | 95 to 100 | 80 to 94 | 80 to 94 | 0 to 59 | 100 | 100 | 100 | 100 | 100 | 100 | 100 | 100 | 100 |
| CCCCS(=O)(=O)c1snc(OC(C)C)c1C#N [Compound 52] | – | 95 to 100 | 95 to 100 | 80 to 94 | 60 to 79 | – | – | – | – | – | – | – | – | – |
| C#CCOc1nsc(S(=O)(=O)CC)c1C#N [Compound 58] | – | 95 to 100 | 95 to 100 | 80 to 94 | 0 to 59 | – | – | – | – | – | – | – | – | – |
| C#CCOc1nsc(S(=O)(=O)CCOCC)c1C#N [Compound 82] | 100 | 95 to 100 | 95 to 100 | 95 to 100 | 60 to 79 | 100 | 100 | 100 | 100 | 100 | 100 | 100 | 100 | 100 |
| COc1nsc(S(=O)(=O)c2ccccc2)c1C#N [Compound 89, 3-methoxy-4-cyano-5-phenylsulfonylisothiazole] | 100 | 80 to 94 | 95 to 100 | 95 to 100 | 60 to 79 | 100 | 100 | 100 | 100 | 100 | 100 | 100 | 100 | 100 |
| COc1nsc(S(=O)(=O)c2ccc(C)cc2)c1C#N [Compound 90, 3-methoxy-4-cyano-5-(4-methylphenyl) sulfonylisothiazole] | – | 95 to 100 | 95 to 100 | 95 to 100 | 60 to 79 | – | – | – | – | – | – | – | – | – |
| C#CCOc1nsc(S(=O)(=O)c2ccccc2)c1C#N [Compound 104] | – | 80 to 94 | 95 to 100 | 95 to 100 | 60 to 79 | – | – | – | – | – | – | – | – | – |
| C#CCOc1nsc(S(=O)(=O)c2ccc(Cl)cc2)c1C#N [Compound 120] | – | 95 to 100 | 95 to 100 | 95 to 100 | 60 to 79 | – | – | – | – | – | – | – | – | – |
| CCOc1nsc(S(=O)(=O)C(F)F)c1C#N [Compound 141] | – | 95 to 100 | 95 to 100 | 95 to 100 | 80 to 94 | – | – | – | – | – | – | – | – | – |
| CCC(C)Oc1nsc(S(=O)(=O)C(F)F)c1C#N (stereo not drawn) [Compound 145] | – | 95 to 100 | 95 to 100 | 95 to 100 | 0 to 59 | – | – | – | – | – | – | – | – | – |
